{
  "source": "ChEMBL document CHEMBL4118101",
  "about": "(Bioorg Med Chem, 2018)",
  "key": {"[1]": {"tested_on": "Candida albicans", "assay": "Induction of membrane permeabilization in Candida albicans ATCC 10231 assessed as membrane disruption at 4 times MIC after 1 hr by propidium iodide staining based fluorescence microscopy", "type": "functional, organism-based"}, "[2]": {"tested_on": "Candida albicans", "assay": "Antifungal activity against fluconazole/ITC-susceptible Candida albicans ATCC MYA-2876 measured after 48 hrs by CLSI M27-A3 protocol based method", "type": "functional", "conditions": "Candida albicans, ATCC MYA-2876, 48 h"}, "[3]": {"tested_on": "Candida albicans", "assay": "Antifungal activity against fluconazole/ITC-resistant Candida albicans ATCC MYA-1003 measured after 48 hrs by CLSI M27-A3 protocol based method", "type": "functional", "conditions": "Candida albicans, ATCC MYA-1003, 48 h; read-out: MIC"}, "[4]": {"tested_on": "Pichia kudriavzevii", "assay": "Antifungal activity against Candida krusei ATCC 6258 measured after 48 hrs by CLSI M27-A3 protocol based method", "type": "functional", "conditions": "Pichia kudriavzevii, ATCC 6258, 48 h"}, "[5]": {"assay": "Hemolytic activity in mouse RBC at 31.3 ug/ml after 1 hr relative to control", "type": "ADME, cell-based, Erythrocyte", "conditions": "mouse red blood cells (erythrocytes), at 31.3 µg/mL, read-out: Activity"}, "[6]": {"tested_on": "Nakaseomyces glabratus", "assay": "Antifungal activity against Candida glabrata isolate CG1 measured after 48 hrs by CLSI M27-A3 protocol based method", "type": "functional", "conditions": "Nakaseomyces glabratus, 48 h; read-out: MIC"}, "[7]": {"tested_on": "Candida albicans", "assay": "Antifungal activity against Candida albicans ATCC 10231 measured after 48 hrs by CLSI M27-A3 protocol based method", "type": "functional", "conditions": "ATCC 10231, 48 h"}, "[8]": {"assay": "Hemolytic activity in mouse RBC at 62.5 ug/ml after 1 hr relative to control", "type": "ADME, cell-based, Erythrocyte", "conditions": "mouse red blood cells (erythrocytes), read-out: Activity"}, "[9]": {"tested_on": "BEAS-2B", "assay": "Cytotoxicity against human BEAS2B cells at 31 ug/ml after 24 hrs by resazurin based assay", "type": "cell-based"}, "[10]": {"tested_on": "Aspergillus nidulans", "assay": "Antifungal activity against Aspergillus nidulans ATCC 38163 measured after 48 hrs by CLSI M38-A2 protocol based method", "type": "functional", "conditions": "ATCC 38163, 48 h"}, "[11]": {"tested_on": "Candida albicans", "assay": "Antifungal activity against Candida albicans ATCC 64124 measured after 48 hrs by CLSI M27-A3 protocol based method", "type": "functional", "conditions": "Candida albicans, ATCC 64124, 48 h; read-out: MIC"}, "[12]": {"tested_on": "Nakaseomyces glabratus", "assay": "Antifungal activity against Candida glabrata isolate CG2 measured after 48 hrs by CLSI M27-A3 protocol based method", "type": "functional", "conditions": "Nakaseomyces glabratus, isolate CG2, 48 h; read-out: MIC"}, "[13]": {"assay": "Hemolytic activity in mouse RBC at 7.8 ug/ml after 1 hr relative to control", "type": "ADME, cell-based, Erythrocyte", "conditions": "mouse red blood cells (erythrocytes), read-out: Activity"}, "[14]": {"tested_on": "Aspergillus terreus", "assay": "Antifungal activity against Aspergillus terreus ATCC MYA-3633 measured after 48 hrs by CLSI M38-A2 protocol based method", "type": "functional", "conditions": "ATCC MYA-3633, 48 h"}, "[15]": {"tested_on": "Candida albicans", "assay": "Fungistatic activity against Candida albicans ATCC 10231 at 4 times MIC incubated for 24 hrs by time kill assay", "type": "functional, organism-based"}, "[16]": {"tested_on": "Candida parapsilosis", "assay": "Antifungal activity against Candida parapsilosis isolate CP1 measured after 48 hrs by CLSI M27-A3 protocol based method", "type": "functional", "conditions": "Lodderomyces parapsilosis, isolate CP1, 48 h"}, "[17]": {"assay": "Hemolytic activity in mouse RBC at 3.9 ug/ml after 1 hr relative to control", "type": "ADME, cell-based, Erythrocyte", "conditions": "mouse red blood cells (erythrocytes), read-out: Activity"}, "[18]": {"tested_on": "Nakaseomyces glabratus", "assay": "Antifungal activity against Candida glabrata isolate CG3 measured after 48 hrs by CLSI M27-A3 protocol based method", "type": "functional", "conditions": "Nakaseomyces glabratus, 48 h; read-out: MIC"}, "[19]": {"assay": "Hemolytic activity in mouse RBC at 1.95 ug/ml after 1 hr relative to control", "type": "ADME, cell-based, Erythrocyte", "conditions": "mouse red blood cells (erythrocytes), at 1.95 µg/mL, read-out: Activity"}, "[20]": {"assay": "Hemolytic activity in mouse RBC at 0.48 ug/ml after 1 hr relative to control", "type": "ADME, cell-based, Erythrocyte", "conditions": "mouse red blood cells (erythrocytes), read-out: Activity"}, "[21]": {"tested_on": "Candida parapsilosis", "assay": "Antifungal activity against Candida parapsilosis ATCC 22019 measured after 48 hrs by CLSI M27-A3 protocol based method", "type": "functional", "conditions": "Lodderomyces parapsilosis, ATCC 22019, 48 h"}, "[22]": {"tested_on": "Aspergillus flavus", "assay": "Antifungal activity against Aspergillus flavus ATCC MYA-3631 measured after 48 hrs by CLSI M38-A2 protocol based method", "type": "functional", "conditions": "ATCC MYA-3631, 48 h"}, "[23]": {"tested_on": "Cryptococcus neoformans", "assay": "Antifungal activity against Cryptococcus neoformans isolate CN1 measured after 48 hrs by CLSI M27-A3 protocol based method", "type": "functional", "conditions": "isolate CN1, 48 h"}, "[24]": {"tested_on": "Candida albicans", "assay": "Antifungal activity against fluconazole/ITC-susceptible Candida albicans ATCC MYA-2310 measured after 48 hrs by CLSI M27-A3 protocol based method", "type": "functional", "conditions": "Candida albicans, ATCC MYA-2310, 48 h; read-out: MIC"}, "[25]": {"tested_on": "Candida parapsilosis", "assay": "Fungistatic activity against Candida parapsilosis ATCC 22019 up to 4 times MIC incubated for 24 hrs by time kill assay", "type": "functional, organism-based"}, "[26]": {"tested_on": "Nakaseomyces glabratus", "assay": "Antifungal activity against Candida glabrata ATCC 2001 measured after 48 hrs by CLSI M27-A3 protocol based method", "type": "functional, CBS 138", "conditions": "Nakaseomyces glabratus, CBS 138, 48 h; read-out: MIC"}, "[27]": {"assay": "Hemolytic activity in mouse RBC at […] ug/ml after 1 hr relative to control", "type": "ADME, cell-based, Erythrocyte", "conditions": "mouse red blood cells (erythrocytes), read-out: Activity"}, "[28]": {"tested_on": "Candida albicans", "assay": "Antifungal activity against fluconazole/ITC-resistant Candida albicans ATCC MYA-1237 measured after 48 hrs by CLSI M27-A3 protocol based method", "type": "functional", "conditions": "Candida albicans, ATCC MYA-1237, 48 h; read-out: MIC"}, "[29]": {"tested_on": "Candida parapsilosis", "assay": "Antifungal activity against Candida parapsilosis isolate CP3 measured after 48 hrs by CLSI M27-A3 protocol based method", "type": "functional", "conditions": "Lodderomyces parapsilosis, isolate CP3, 48 h"}, "[30]": {"tested_on": "Candida parapsilosis", "assay": "Antifungal activity against Candida parapsilosis isolate CP2 measured after 48 hrs by CLSI M27-A3 protocol based method", "type": "functional", "conditions": "Lodderomyces parapsilosis, isolate CP2, 48 h"}, "[31]": {"tested_on": "A549", "assay": "Cytotoxicity against human A549 cells at 15.5 ug/ml after 24 hrs by resazurin based assay", "type": "cell-based", "conditions": "a549, 24 h"}, "[32]": {"tested_on": "Candida albicans", "assay": "Antifungal activity against fluconazole/ITC-resistant Candida albicans ATCC 90819 measured after 48 hrs by CLSI M27-A3 protocol based method", "type": "functional", "conditions": "Candida albicans, ATCC 90819, 48 h; read-out: MIC"}, "[33]": {"tested_on": "Cryptococcus neoformans", "assay": "Antifungal activity against Cryptococcus neoformans isolate CN3 measured after 48 hrs by CLSI M27-A3 protocol based method", "type": "functional", "conditions": "Cryptococcus neoformans, isolate CN3, 48 h; read-out: MIC"}, "[34]": {"tested_on": "Cryptococcus neoformans", "assay": "Antifungal activity against Cryptococcus neoformans isolate CN2 measured after 48 hrs by CLSI M27-A3 protocol based method", "type": "functional", "conditions": "Cryptococcus neoformans, isolate CN2, 48 h; read-out: MIC"}, "[35]": {"tested_on": "HEK293", "assay": "Cytotoxicity against HEK293 cells up to 31 ug/ml after 24 hrs by resazurin based assay", "type": "cell-based", "conditions": "human, hek293, 24 h"}},
  "note": "The source made the active and inactive calls. The rule behind the calls is not given here.",
  "data": [
    {"smiles": "CCCCCCCCNCC(O)(Cn1cncn1)c1ccc(F)cc1F", "note": "(stereo unspecified)", "values": [
      {"measurement": "Activity", "setting": "[1]", "value": "inactive"},
      {"measurement": "MIC", "setting": "[2]", "value": 85.4, "unit": "µM"},
      {"measurement": "MIC", "setting": "[3]", "value": 85.4, "unit": "µM"},
      {"measurement": "MIC", "setting": "[4]", "value": 2.7, "unit": "µM"},
      {"measurement": "hemolysis at 1 h, 31.3 ug/ml", "setting": "[5]", "value": 9, "unit": "%"},
      {"measurement": "MIC", "setting": "[6]", "value": 21.3, "unit": "µM"},
      {"measurement": "MIC", "setting": "[7]", "value": 2.7, "unit": "µM"},
      {"measurement": "hemolysis at 1 h, 62.5 ug/ml", "setting": "[8]", "value": 78, "unit": "%"},
      {"measurement": "Activity", "setting": "[9]", "value": "Non-Toxic"},
      {"measurement": "MIC", "setting": "[10]", "value": 5.3, "unit": "µM"},
      {"measurement": "MIC", "setting": "[11]", "value": "> 85.4", "unit": "µM"},
      {"measurement": "MIC", "setting": "[12]", "value": 2.7, "unit": "µM"},
      {"measurement": "hemolysis at 1 h, 7.8 ug/ml", "setting": "[13]", "value": 0, "unit": "%"},
      {"measurement": "MIC", "setting": "[14]", "value": 42.6, "unit": "µM"},
      {"measurement": "Activity", "setting": "[15]", "value": "Active"},
      {"measurement": "MIC", "setting": "[16]", "value": 1.3, "unit": "µM"},
      {"measurement": "hemolysis at 1 h, 3.9 ug/ml", "setting": "[17]", "value": 2, "unit": "%"},
      {"measurement": "MIC", "setting": "[18]", "value": 42.6, "unit": "µM"},
      {"measurement": "hemolysis at 1 h, 1.95 ug/ml", "setting": "[19]", "value": 0, "unit": "%"},
      {"measurement": "hemolysis at 1 h, 0.48 ug/ml", "setting": "[20]", "value": 2, "unit": "%"},
      {"measurement": "MIC", "setting": "[21]", "value": 0.16, "unit": "µM"},
      {"measurement": "MIC", "setting": "[22]", "value": "> 85.4", "unit": "µM"},
      {"measurement": "MIC", "setting": "[23]", "value": 5.3, "unit": "µM"},
      {"measurement": "MIC", "setting": "[24]", "value": 85.4, "unit": "µM"},
      {"measurement": "Activity", "setting": "[25]", "value": "Active"},
      {"measurement": "MIC", "setting": "[26]", "value": "2.7 to 21.3", "unit": "µM"},
      {"measurement": "hemolysis at 1 h, 0.975 ug/ml", "setting": "[27]", "value": 2, "unit": "%"},
      {"measurement": "hemolysis at 1 h, 15.6 ug/ml", "setting": "[27]", "value": 3, "unit": "%"},
      {"measurement": "MIC", "setting": "[28]", "value": 42.6, "unit": "µM"},
      {"measurement": "MIC", "setting": "[29]", "value": 0.65, "unit": "µM"},
      {"measurement": "MIC", "setting": "[30]", "value": 0.33, "unit": "µM"},
      {"measurement": "Activity", "setting": "[31]", "value": "Non-Toxic"},
      {"measurement": "MIC", "setting": "[32]", "value": 21.3, "unit": "µM"},
      {"measurement": "MIC", "setting": "[33]", "value": 10.6, "unit": "µM"},
      {"measurement": "MIC", "setting": "[34]", "value": 10.6, "unit": "µM"},
      {"measurement": "Activity", "setting": "[35]", "value": "Non-Toxic"}
    ]}
  ]
}
